Source: patent US11491148B2, “Amide derivatives useful in the treatment of HBV infection or HBV-induced diseases” (Janssen Sciences Ireland Unlimited Company, priority 2019, dated 2022)
Counter-ions that a name gives are not always drawn. Like-named read-outs stand apart in the source and are kept apart here.

Assays:
[1] = system: HBV; assay: Anti-HBV activity, intracellular HBV DNA by real-time PCR (HBV-AVE-HepG2.117); format: cell-based, Hepatitis B virus; details: read-out: HBV-AVE-HepG2.117 EC50 (μM; mean value)
Protocol: The anti HBV activity was measured using the HepG2.117 cell line, a stable, inducible HBV producing cell line, which replicates HBV in the absence of doxicycline (Tet-off system). The HepG2 cell line is available from ATCC®) under number HB-8065. Transfection of the HepG2 cell line can be as described in Sun and Nassal 2006 Journal of Hepatology 45 (2006) 636-645 “Stable HepG2- and Huh7-based human hepatoma cell lines for efficient regulated expression of infectious hepatitis B virus”.
For the antiviral assay, HBV replication was induced, followed by a treatment with serially diluted compound in 96-well plates. After 3 days of treatment, the antiviral activity was determined by quantification of intracellular HBV DNA using real-time PCR and an HBV specific primer set and probe.

[2] = Cytotoxicity, ATPlite cell viability (TOX-HepG2.117); format: cell-based, human; details: human; HepG2.117 cells, incubated for 3 days, ATPlite, mean value
Protocol: Cytotoxicity of the compounds was tested using HepG2 or HepG2.117 cells, incubated for 3 days in the presence of compounds. The viability of the cells was assessed using the Perkin Elmer ATPlite Luminescence Assay System.”

[3] = Hepatitis B virus, HepG2.117, 72 h, HepG2.117 cell line, 3 days of treatment, intracellular HBV DNA, mean value
[4] = Hepatitis B virus, HepG2.117, 72 h

C[C@H]1[C@@H](C(=O)Nc2ccc(Cl)c(Cl)c2)CCN1C(=O)C(=O)N[C@H](CC(F)(F)F)c1c[nH]nn1 (single isomer, unassigned) [C25R*]
EC50 [1, 3]: 0.017 µM | CC50 at 3 days [2]: 25.7 µM

C[C@H]1[C@@H](C(=O)Nc2ccc(Cl)c(Cl)c2)CCN1C(=O)C(=O)N[C@@H](CC(F)(F)F)c1c[nH]nn1 (single isomer, unassigned) [C25S*]
EC50 [1, 3]: 0.074 µM | CC50 at 3 days [2]: > 50 µM

C[C@H]1[C@@H](C(=O)Nc2ccc(F)c(C#N)c2)CCN1C(=O)C(=O)N[C@H](CC(F)(F)F)c1c[nH]nn1 (single isomer, unassigned) [C28R*]
EC50 [1, 3]: 0.032 µM | CC50 at 3 days [2]: > 50 µM

C[C@H]1[C@@H](C(=O)Nc2ccc(F)c(C#N)c2)CCN1C(=O)C(=O)N[C@@H](CC(F)(F)F)c1c[nH]nn1 (single isomer, unassigned) [C28S*]
EC50 [1, 3]: 0.07 µM | CC50 at 3 days [2]: > 50 µM

C[C@H]1[C@@H](C(=O)Nc2cc(F)c(F)c(F)c2)CCN1C(=O)C(=O)N[C@H](CC(F)(F)F)c1c[nH]nn1 (single isomer, unassigned) [C29R*]
EC50 [1, 3]: 0.014 µM | CC50 at 3 days [2]: > 50 µM

C[C@H]1[C@@H](C(=O)Nc2cc(F)c(F)c(F)c2)CCN1C(=O)C(=O)N[C@@H](CC(F)(F)F)c1c[nH]nn1 (single isomer, unassigned) [C29S*]
EC50 [1, 3]: 0.042 µM | CC50 at 3 days [2]: > 50 µM

C[C@H]1[C@@H](C(=O)Nc2ccc(F)c(C(F)(F)F)c2)CCN1C(=O)C(=O)N[C@H](CC(F)(F)F)c1c[nH]nn1 (single isomer, unassigned) [C30R*]
EC50 [1, 3]: 0.037 µM | CC50 at 3 days [2]: > 50 µM

C[C@H]1[C@@H](C(=O)Nc2ccc(F)c(C(F)(F)F)c2)CCN1C(=O)C(=O)N[C@@H](CC(F)(F)F)c1c[nH]nn1 (single isomer, unassigned) [C30S*]
EC50 [1, 3]: 0.06 µM | CC50 at 3 days [2]: > 50 µM

C[C@H]1[C@@H](C(=O)Nc2ccc(F)c(C(F)F)c2F)CCN1C(=O)C(=O)N[C@H](CC(F)(F)F)c1c[nH]nn1 (single isomer, unassigned) [C31R*]
EC50 [1, 3]: 0.021 µM | CC50 at 3 days [2]: > 50 µM

C[C@H]1[C@@H](C(=O)Nc2ccc(F)c(C(F)F)c2F)CCN1C(=O)C(=O)N[C@@H](CC(F)(F)F)c1c[nH]nn1 (single isomer, unassigned) [C31S*]
EC50 [1, 3]: 0.056 µM | CC50 at 3 days [2]: > 50 µM

C[C@H]1[C@@H](C(=O)Nc2cc(F)c(F)c(Cl)c2)CCN1C(=O)C(=O)N[C@H](CC(F)(F)F)c1c[nH]nn1 (single isomer, unassigned) [C32R*]
EC50 [1, 3]: 0.007 µM | CC50 at 3 days [2]: > 50 µM

C[C@H]1[C@@H](C(=O)Nc2cc(F)c(F)c(Cl)c2)CCN1C(=O)C(=O)N[C@@H](CC(F)(F)F)c1c[nH]nn1 (single isomer, unassigned) [C32S*]
EC50 [1, 3]: 0.031 µM | CC50 at 3 days [2]: > 50 µM

C[C@H]1[C@@H](C(=O)Nc2cc(F)c(F)c(F)c2)CCN1C(=O)C(=O)N[C@](C)(CC(F)F)c1c[nH]nn1 (single isomer, unassigned) [C33R*]
EC50 [1, 3]: 0.034 µM | CC50 at 3 days [2]: > 50 µM

C[C@H]1[C@@H](C(=O)Nc2cc(F)c(F)c(F)c2)CCN1C(=O)C(=O)N[C@@](C)(CC(F)F)c1c[nH]nn1 (single isomer, unassigned) [C33S*]
EC50 [1, 3]: 0.04 µM | CC50 at 3 days [2]: > 50 µM

C[C@H]1[C@@H](C(=O)Nc2ccc(F)c(Cl)c2)CCN1C(=O)C(=O)N[C@H](CC(F)(F)F)c1c[nH]nn1 (single isomer, unassigned) [C34R*]
EC50 [1, 3]: 0.003 µM | CC50 at 3 days [2]: > 50 µM

C[C@H]1[C@@H](C(=O)Nc2ccc(F)c(Cl)c2)CCN1C(=O)C(=O)N[C@@H](CC(F)(F)F)c1c[nH]nn1 (single isomer, unassigned) [C34S*]
EC50 [1, 3]: 0.035 µM | CC50 at 3 days [2]: > 50 µM

C[C@H]1[C@@H](C(=O)Nc2ccc(F)c(Cl)c2F)CCN1C(=O)C(=O)N[C@H](CC(F)(F)F)c1c[nH]nn1 (single isomer, unassigned) [C37R*]
EC50 [1, 3]: 0.014 µM | CC50 at 3 days [2]: > 50 µM

C[C@H]1[C@@H](C(=O)Nc2ccc(F)c(Cl)c2F)CCN1C(=O)C(=O)N[C@@H](CC(F)(F)F)c1c[nH]nn1 (single isomer, unassigned) [C37S*]
EC50 [1, 3]: 0.043 µM | CC50 at 3 days [2]: > 50 µM

N#Cc1cc(NC(=O)[C@H]2CCN(C(=O)C(=O)NC3(c4c[nH]nn4)CC(F)(F)C3)C2)ccc1F [C1, (3S)—N-(3-Cyano-4-fluorophenyl)-1-[{[3,3-difluoro-1-(1H-1,2,3-triazol-4-yl)cyclobutyl]amino}(oxo)acetyl]pyrrolidine-3-carboxamide]
EC50 [1, 3]: 0.15 µM | CC50 at 3 days [2]: > 50 µM

N#Cc1cc(NC(=O)[C@H]2CCN(C(=O)C(=O)NC3(c4c[nH]nn4)CC(F)(F)C3)C2)ccc1F [C1•HCl, (3S)—N-(3-Cyano-4-fluorophenyl)-1-[{[3,3-difluoro-1-(1H-1,2,3-triazol-4-yl)cyclobutyl]amino}(oxo)acetyl]pyrrolidine-3-carboxamide hydrochloride]
EC50 ([1]; HepG2.117 cell line, 3 days of treatment, intracellular HBV DNA, mean value, hydrochloride): 0.27 µM

Cc1cc(NC(=O)[C@H]2CCN(C(=O)C(=O)NC3(c4c[nH]nn4)CC(F)(F)C3)C2)ccc1F [C2, (3S)-1-[{[3,3-Difluoro-1-(1H-1,2,3-triazol-4-yl)cyclobutyl]amino}(oxo)acetyl]-N-(4-fluoro-3-methylphenyl)pyrrolidine-3-carboxamide]
EC50 [1, 3]: 0.079 µM | CC50 at 3 days [2]: > 50 µM

C[C@H]1[C@@H](C(=O)Nc2cc(F)c(F)c(F)c2)CCN1C(=O)C(=O)NC1(c2c[nH]nn2)CC(F)(F)C1 [C3, (2S,3S)-1-[{[3,3-Difluoro-1-(1H-1,2,3-triazol-4-yl)cyclobutyl]amino}(oxo)acetyl]-2-methyl-N-(3,4,5-trifluorophenyl)pyrrolidine-3-carboxamide]
EC50 [1, 4]: 0.011 µM | CC50 at 3 days [2]: > 50 µM

O=C(NC1(c2c[nH]nn2)CC(F)(F)C1)C(=O)N1CC[C@H](C(=O)Nc2cc(F)c(F)c(F)c2)C1 [C4, (3S)-1-[{[3,3-Difluoro-1-(1H-1,2,3-triazol-4-yl)cyclobutyl]amino}(oxo)acetyl]-N-(3,4,5-trifluorophenyl)pyrrolidine-3-carboxamide]
EC50 [1, 3]: 0.053 µM | CC50 at 3 days [2]: > 50 µM

O=C(NC1(c2c[nH]nn2)CC(F)(F)C1)C(=O)N1CC[C@H](C(=O)Nc2ccc(F)c(Cl)c2)C1 [C5, (3S)—N-(3-Chloro-4-fluorophenyl)-1-[{[3,3-difluoro-1-(1H-1,2,3-triazol-4-yl)cyclobutyl]amino}(oxo)acetyl]pyrrolidine-3-carboxamide]
EC50 [1, 4]: 0.04 µM | CC50 at 3 days [2]: > 50 µM

C[C@H]1[C@@H](C(=O)Nc2ccc(F)c(C#N)c2)CCN1C(=O)C(=O)NC1(c2c[nH]nn2)CC(F)(F)C1 [C6, (2S,3S)—N-(3-Cyano-4-fluorophenyl)-1-[{[3,3-difluoro-1-(1H-1,2,3-triazol-4-yl)cyclobutyl]amino}(oxo)acetyl]-2-methylpyrrolidine-3-carboxamide]
EC50 [1, 4]: 0.044 µM | CC50 at 3 days [2]: > 50 µM

O=C(NC1(c2c[nH]nn2)CC(F)(F)C1)C(=O)N1CC[C@H](C(=O)Nc2ccc(Cl)c(Cl)c2)C1 [C7]
EC50 [1, 3]: 0.1 µM | CC50 at 3 days [2]: > 50 µM

O=C(NC1(c2c[nH]nn2)CC(F)(F)C1)C(=O)N1CC[C@H](C(=O)Nc2cc(F)c(F)c(Cl)c2)C1 [C8]
EC50 [1, 3]: 0.045 µM | CC50 at 3 days [2]: > 50 µM

C[C@@H]1CN(C(=O)C(=O)NC2(c3c[nH]nn3)CC(F)(F)C2)C[C@H]1C(=O)Nc1cc(F)c(F)c(F)c1 [C9]
EC50 [1, 3]: 0.204 µM | CC50 at 3 days [2]: > 50 µM

C[C@H]1CN(C(=O)C(=O)NC2(c3c[nH]nn3)CC(F)(F)C2)C[C@H]1C(=O)Nc1cc(F)c(F)c(F)c1 [C10]
EC50 [1, 3]: 0.578 µM | CC50 at 3 days [2]: > 50 µM

O=C(NC1(c2c[nH]nn2)CC(F)(F)C1)C(=O)N1CC[C@H](C(=O)Nc2ccnc(Cl)c2)C1 [C11]
EC50 [1, 3]: 1.5 µM | CC50 at 3 days [2]: > 50 µM

O=C(NC1(c2c[nH]nn2)CC(F)(F)C1)C(=O)N1CC[C@H](C(=O)Nc2ccnc(C(F)F)c2)C1 [C12]
EC50 [1, 3]: 1.29 µM | CC50 at 3 days [2]: > 50 µM

C[C@H]1C[C@H](C(=O)Nc2ccc(F)c(C#N)c2)CN1C(=O)C(=O)NC1(c2c[nH]nn2)CC(F)(F)C1 [C13]
EC50 [1, 3]: 0.061 µM | CC50 at 3 days [2]: > 50 µM

C[C@H]1[C@@H](C(=O)Nc2ccc(F)c(C(F)F)c2F)CCN1C(=O)C(=O)NC1(c2c[nH]nn2)CC(F)(F)C1 [C14]
EC50 [1, 3]: 0.019 µM | CC50 at 3 days [2]: > 50 µM

C[C@H]1[C@@H](C(=O)Nc2ccc(Cl)c(Cl)c2)CCN1C(=O)C(=O)NC1(c2c[nH]nn2)CC(F)(F)C1 [C15]
EC50 [1, 3]: 0.014 µM | CC50 at 3 days [2]: 35.2 µM

C[C@H]1[C@@H](C(=O)Nc2cc(F)c(F)c(Cl)c2)CCN1C(=O)C(=O)NC1(c2c[nH]nn2)CC(F)(F)C1 [C16]
EC50 [1, 3]: 0.006 µM | CC50 at 3 days [2]: > 50 µM

C[C@H]1[C@@H](C(=O)Nc2ccc(F)c(Cl)c2F)CCN1C(=O)C(=O)NC1(c2c[nH]nn2)CC(F)(F)C1 [C17]
EC50 [1, 3]: 0.01 µM | CC50 at 3 days [2]: > 50 µM

C[C@H]1[C@@H](C(=O)Nc2ccc(F)c(C(F)(F)F)c2)CCN1C(=O)C(=O)NC1(c2c[nH]nn2)CC(F)(F)C1 [C18]
EC50 [1, 3]: 0.012 µM | CC50 at 3 days [2]: > 50 µM

C[C@H]1C[C@H](C(=O)Nc2cc(F)c(F)c(F)c2)CN1C(=O)C(=O)NC1(c2c[nH]nn2)CC(F)(F)C1 [C19]
EC50 [1, 3]: 0.019 µM | CC50 at 3 days [2]: > 50 µM

C[C@H]1[C@@H](C(=O)Nc2ccc(F)c(Cl)c2)CCN1C(=O)C(=O)NC1(c2c[nH]nn2)CC(F)(F)C1 [C20]
EC50 [1, 3]: 0.012 µM | CC50 at 3 days [2]: > 50 µM
